These results are taken from US11299501B2 (BRISTOL-MYERS SQUIBB COMPANY, priority 2017, dated 2022).

Common to all, as to assay type: cell-based
For assay [1], the target named is T1, human TLR7 (Homo sapiens, UniProt Q9NYK1).
T1 construct: host or cells: HEK-Blue cells
T1 sequence (Q9NYK1 27-1049): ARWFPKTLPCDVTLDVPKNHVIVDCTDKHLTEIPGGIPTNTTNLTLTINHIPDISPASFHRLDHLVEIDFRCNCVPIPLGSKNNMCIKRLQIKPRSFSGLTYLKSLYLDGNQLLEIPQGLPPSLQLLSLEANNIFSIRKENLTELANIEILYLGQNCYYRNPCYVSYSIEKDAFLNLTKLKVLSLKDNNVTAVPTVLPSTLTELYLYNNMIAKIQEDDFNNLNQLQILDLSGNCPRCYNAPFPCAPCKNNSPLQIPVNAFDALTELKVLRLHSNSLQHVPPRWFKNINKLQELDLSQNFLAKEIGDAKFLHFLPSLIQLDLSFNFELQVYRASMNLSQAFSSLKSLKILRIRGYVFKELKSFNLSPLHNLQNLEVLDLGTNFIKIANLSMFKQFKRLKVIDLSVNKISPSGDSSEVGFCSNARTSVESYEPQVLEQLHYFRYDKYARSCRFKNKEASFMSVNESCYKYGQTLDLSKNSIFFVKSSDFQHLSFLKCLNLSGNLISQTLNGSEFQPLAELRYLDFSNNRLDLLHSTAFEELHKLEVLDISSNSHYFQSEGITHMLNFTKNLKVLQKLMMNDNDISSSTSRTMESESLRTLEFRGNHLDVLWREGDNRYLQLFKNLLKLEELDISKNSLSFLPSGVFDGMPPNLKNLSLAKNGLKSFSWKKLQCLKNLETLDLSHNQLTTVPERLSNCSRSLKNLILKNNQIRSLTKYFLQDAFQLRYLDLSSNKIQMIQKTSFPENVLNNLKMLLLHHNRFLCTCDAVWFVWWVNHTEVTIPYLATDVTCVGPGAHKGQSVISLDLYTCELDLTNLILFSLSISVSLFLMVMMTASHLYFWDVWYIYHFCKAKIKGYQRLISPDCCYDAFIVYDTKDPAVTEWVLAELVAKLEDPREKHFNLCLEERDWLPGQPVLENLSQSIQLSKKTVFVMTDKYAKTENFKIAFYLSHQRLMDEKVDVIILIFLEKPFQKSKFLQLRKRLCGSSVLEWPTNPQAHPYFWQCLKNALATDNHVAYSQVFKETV
Kind of assay: TLR7 inhibition reporter assay (HEK-Blue SEAP). Particulars: cells overexpressing human TLR7, SEAP reporter, stimulated with gardiquimod 7.5 μM, 22 hour incubation. As for the experimental part: (§1) TLR7/8/9 Inhibition Reporter Assays
(§2) […] (Invivogen) overexpressing human TLR7, TLR8 or TLR9 receptors were used for screening inhibitors of these receptors using an inducible SEAP (secreted embryonic alkaline phosphatase) reporter gene under the control of the IFN-β minimal promoter fused to five NF-κB and AP-1-binding sites. Briefly, cells are seeded into Greiner 384 well plates (15000 cells per well for TLR7, 20,000 for TLR8 and 25,000 for TLR9) and then treated with test compounds in DMSO to yield a final dose response concentration range of 0.05 nM-50 μM. After a 30 minute compound pre-treatment at room temperature, the cells are then stimulated with a TLR7 ligand (gardiquimod at a final concentration of 7.5 μM). TLR8 ligand (R848 at a final concentration of 15.9 μM) or TLR9 ligand (ODN2006 at a final concentration of 5 nM) to activate NF-κB and AP-1 which induce the production of SEAP. After a 22 hour incubation at 37° C., 5% CO2, SEAP levels are determined with the addition of HEK-Blue™ Detection reagent (Invivogen), a cell culture medium that allows for detection of SEAP, according to manufacturer's specifications. The percent inhibition is determined as the % reduction in the HEK-Blue signal present in wells treated with agonist plus DMSO alone compared to wells treated with a known inhibitor.
(Reporter assays use an easily measured gene product as a stand-in for the process of interest.)

The target of assay [2] is T2, human TLR9 (Homo sapiens, UniProt Q9NR96).
T2 construct: host or cells: HEK-Blue cells
T2 sequence (Q9NR96 26-1032): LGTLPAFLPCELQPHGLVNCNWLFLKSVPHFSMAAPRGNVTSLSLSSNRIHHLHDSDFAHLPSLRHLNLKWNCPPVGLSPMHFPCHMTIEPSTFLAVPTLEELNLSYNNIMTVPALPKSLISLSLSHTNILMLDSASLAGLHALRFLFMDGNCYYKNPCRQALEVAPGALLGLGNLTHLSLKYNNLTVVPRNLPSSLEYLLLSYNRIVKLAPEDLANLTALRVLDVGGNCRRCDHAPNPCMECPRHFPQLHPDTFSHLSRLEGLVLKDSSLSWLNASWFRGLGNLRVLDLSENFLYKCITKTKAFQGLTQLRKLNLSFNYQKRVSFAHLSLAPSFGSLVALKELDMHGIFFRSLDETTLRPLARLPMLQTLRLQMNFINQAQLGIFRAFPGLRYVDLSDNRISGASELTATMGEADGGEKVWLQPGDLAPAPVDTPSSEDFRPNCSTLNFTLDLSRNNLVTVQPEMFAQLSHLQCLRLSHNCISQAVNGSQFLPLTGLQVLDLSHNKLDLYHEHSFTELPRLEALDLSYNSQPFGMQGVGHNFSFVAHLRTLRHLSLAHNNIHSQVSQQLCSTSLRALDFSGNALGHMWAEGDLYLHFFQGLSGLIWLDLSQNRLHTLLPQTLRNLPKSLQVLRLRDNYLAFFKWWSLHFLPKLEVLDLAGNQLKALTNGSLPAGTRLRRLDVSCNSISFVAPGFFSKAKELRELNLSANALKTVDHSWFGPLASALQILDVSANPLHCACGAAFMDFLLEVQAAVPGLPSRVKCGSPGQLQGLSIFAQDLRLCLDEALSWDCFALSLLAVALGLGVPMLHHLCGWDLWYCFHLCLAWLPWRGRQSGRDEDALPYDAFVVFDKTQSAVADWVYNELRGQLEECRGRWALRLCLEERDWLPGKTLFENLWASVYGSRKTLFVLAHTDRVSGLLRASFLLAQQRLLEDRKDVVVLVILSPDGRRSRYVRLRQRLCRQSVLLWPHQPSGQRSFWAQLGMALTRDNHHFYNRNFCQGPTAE
Kind of assay: TLR9 inhibition reporter assay (HEK-Blue SEAP). Particulars: cells overexpressing human TLR9, SEAP reporter, stimulated with ODN2006 5 nM, 22 hour incubation. On the procedure: as §1, §2

Assay [3] deals with T3, human TLR8 (Homo sapiens, UniProt Q9NR97).
T3 construct: host or cells: HEK-Blue cells
T3 sequence (Q9NR97 27-1041): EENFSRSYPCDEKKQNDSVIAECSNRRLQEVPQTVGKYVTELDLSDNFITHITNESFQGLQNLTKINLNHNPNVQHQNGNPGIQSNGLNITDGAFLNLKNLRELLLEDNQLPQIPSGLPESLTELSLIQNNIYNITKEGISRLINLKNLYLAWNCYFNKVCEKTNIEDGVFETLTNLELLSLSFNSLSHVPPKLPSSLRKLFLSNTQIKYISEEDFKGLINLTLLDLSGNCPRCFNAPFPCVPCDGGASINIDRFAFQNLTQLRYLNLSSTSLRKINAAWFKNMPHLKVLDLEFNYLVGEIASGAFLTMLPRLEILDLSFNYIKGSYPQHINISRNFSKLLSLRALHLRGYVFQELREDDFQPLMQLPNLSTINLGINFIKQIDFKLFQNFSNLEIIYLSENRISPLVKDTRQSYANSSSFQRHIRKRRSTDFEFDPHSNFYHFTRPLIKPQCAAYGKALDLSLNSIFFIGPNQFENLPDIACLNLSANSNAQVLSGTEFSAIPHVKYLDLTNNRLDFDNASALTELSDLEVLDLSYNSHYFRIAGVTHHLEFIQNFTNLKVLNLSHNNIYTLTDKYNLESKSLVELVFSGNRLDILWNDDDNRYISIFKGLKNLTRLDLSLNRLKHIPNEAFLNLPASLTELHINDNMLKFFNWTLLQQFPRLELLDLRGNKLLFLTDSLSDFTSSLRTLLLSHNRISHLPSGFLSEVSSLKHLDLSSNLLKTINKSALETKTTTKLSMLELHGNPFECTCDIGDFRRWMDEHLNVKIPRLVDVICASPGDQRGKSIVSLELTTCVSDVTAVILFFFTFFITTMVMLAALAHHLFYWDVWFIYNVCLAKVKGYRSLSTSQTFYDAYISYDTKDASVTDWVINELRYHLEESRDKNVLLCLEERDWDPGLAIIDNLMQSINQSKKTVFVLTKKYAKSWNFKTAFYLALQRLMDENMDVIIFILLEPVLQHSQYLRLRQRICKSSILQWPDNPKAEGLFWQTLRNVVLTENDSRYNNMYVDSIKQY
Kind of assay: TLR8 inhibition reporter assay (HEK-Blue SEAP). Particulars: cells overexpressing human TLR8, SEAP reporter, stimulated with R848 15.9 μM, 22 hour incubation. On the procedure: as §1, §2

What is called IC50 is the concentration that inhibits the measured activity by half. A lower IC50 goes with inhibition by little substance.

Each structure is given as a SMILES string. A value given as a limit tells only on which side of the number the result lay.

`CCc1c(-c2ccc(OC)c(OC)c2)[nH]c2nnc(C3CCNCC3)cc12` [Example 1, 6-(3,4-dimethoxyphenyl)-5-ethyl-3-(piperidin-4-yl)-7H-pyrrolo[2,3-c]pyridazine]: the IC50 in assay [1] fell in the range of 0.1 to 1 µM; in assay [2], 0.1 to 1 µM; in assay [3] it was 1 to 50 µM.

On to `CCc1c(-c2ccc(OC)c(OC)c2)[nH]c2nnc(C3CCN(C4CCN(C(C)C)CC4)CC3)cc12` [Example 2, 6-(3,4-dimethoxyphenyl)-5-ethyl-3-(1′-isopropyl-[1,4′-bipiperidin]-4-yl)-7H-pyrrolo[2,3-c]pyridazine], for which the IC50 in assay [1], in assay [2] and in assay [3] was 0.1 to 1 µM each time.

As to `CCc1c(-c2ccc(OC)c(OC)c2)[nH]c2ncc(C3CCNCC3)nc12` [Example 3, 6-(3,4-dimethoxyphenyl)-7-ethyl-2-(piperidin-4-yl)-5H-pyrrolo[2,3-b]pyrazine], the IC50 in assay [1], in assay [2] and in assay [3] was 0.1 to 1 µM throughout.

For `CCc1c(-c2ccc(OC)c(OC)c2)[nH]c2ncc(C3CCN(C(=O)CN(C)C)CC3)nc12` [Example 4, 1-(4-(6-(3,4-dimethoxypbenyl)-7-ethyl-5H-pyrrolo[2,3-b]pyrazin-2-yl)piperidin-1-yl)-2-(dimethylamino)ethanone], the IC50 lay in the range of 0.1 to 1 µM in assay [1], 1 to 50 µM in assay [2] and 0.1 to 1 µM in assay [3].

With `CCc1c(-c2ccc(OC)c(OC)c2)[nH]c2ncc(C3CCN(C4CCN(C(C)C)CC4)CC3)nc12` [Example 5, 6-(3,4-ditnethoxyphenyl)-7-ethyl-2-(1′-isopropyl-[1,4′-bipiperidin]-4-yl)-5H-pyrrolo[2,3-b]pyrazine], the IC50 in assay [1] is below 0.1 µM; in assay [2], 0.1 to 1 µM; in assay [3], 0.1 to 1 µM.

Take `COc1ccc(-c2[nH]c3cnc(C4CCN(C5CCN(CC(C)C)CC5)CC4)nc3c2C)cc1OC` [Example 6, 6-(3,4-dimethoxyphenyl)-2-(1′-isobutyl-[1,4′-bipiperidin]-4-yl)-7-methyl-5H-pyrrolo[3,2-d]pyrimidine]: the half-maximal inhibitory concentration (IC50) in assay [1], in assay [2] and in assay [3] was 0.1 to 1 µM in each case.

As for `Cc1cc(-c2[nH]c3cnc(C4CCNCC4)nc3c2C(C)C)cn(C)c1=O` [Example 7, 5-(7-isopropyl-2-(piperidin-4-yl)-5H-pyrrolo[3,2-d]pyrimidin-6-yl)-1,3-dimethylpyridin-2(1H)-one], the IC50 was below 0.1 µM in assay [1], 1 to 50 µM in assay [2] and 0.1 to 1 µM in assay [3].

On to `Cc1cc(-c2[nH]c3cnc(C4CCN(C5COC5)CC4)nc3c2C(C)C)cn(C)c1=O` [Example 8, 5-(7-isopropyl-2-(1-(oxetan-3-yl)piperidin-4-yl)-5H-pyrrolo[3,2-d]pyrimidin-6-yl)-1,3-dimethylpyridin-2(1H)-one], for which the IC50 in assay [1] was below 0.1 µM; in assay [2], 1 to 50 µM; in assay [3], below 0.1 µM.

For the compound `CNC(=O)CN1CCC(c2ncc3[nH]c(-c4cn5ncnc5c(C)c4C)c(C(C)C)c3n2)CC1` [Example 9, 2-(4-(6-(7,8-dimethyl-[1,2,4]triazolo[1,5-a]pyridin-6-yl)-7-isopropyl-5H-pyrrolo[3,2-d]pyrimidin-2-yl)piperidin-1-yl)-N-methylacetamide], the values for the IC50 in assay [1], in assay [2] and in assay [3] were below 0.1 µM, 1 to 50 µM and below 0.1 µM, respectively.

With `Cc1c(-c2[nH]c3cnc(C4CCN(CC(=O)N(C)C)CC4)nc3c2C(C)C)cn2ncnc2c1C` [Example 10, 2-(4-(6-(7,8-dimethyl-[1,2,4]triazolo[1,5-a]pyrimidin-6-yl)-7-isopropyl-5H-pyrrolo[3,2-d]pyrimidin-2-yl)piperidin-1-yl)-N,N-dimethylacetantide], the results for the IC50 in assay [1], in assay [2] and in assay [3] were below 0.1 µM, 1 to 50 µM and below 0.1 µM, respectively.

Consider `COc1cc(-c2[nH]c3cnc(C4CCN(C(=O)CN(C)C)CC4)nc3c2C(C)C)cn2ncnc12` [Example 11, 2-(dirnethylamino)-1-(4-(7-isopropyl-6-(8-methoxy-[1,2,4]triazolo[1,5-a]pyridin-6-yl)-5H-pyrrolo[3,2-d]pyrimidin-2-yl)piperidin-1-yl)ethan-1-one], for which the IC50 in assay [1] was below 0.1 µM; in assay [2] it was 1 to 50 µM; in assay [3] it was below 0.1 µM.
